# Data reported in US5070210A, “Novel ketenimines as intermediates for insecticides” (ICI Americas Inc., priority 1990, dated 1991).
# Legend:
# Type in all cases: in vivo
# [1] = test system: Tobacco Budworm [Heliothis virescens (Fabricius)] eggs; assay: Tobacco budworm egg test; details: 2-day old eggs, percent in solution
# Outline: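 2-day eggs on paper towel, acetone dip, 0.1% and below; petri dish with larval diet, 78° F. Mortality read after control hatch and larval feeding. LC50 = % compound in solution, from dose-mortality curve.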
# [2] = test system: Aster Leafhopper [Macrosteles fascifrens (Stal)]; assay: Aster leafhopper insecticidal test; details: adults/nymphs, percent in solution; 48 hours
# Outline: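 Three ~10 cm oat seedlings per cup were dipped 2-3 seconds in 50-50 acetone-water compound solutions, dried, and caged with ten adult/nymph leafhoppers. Mortality was counted after 48 hours at concentrations from 0.05% downward. LC50, as percent compound in solution, came from dosage-mortality curves.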
# [3] = test system: Cabbage Looper [Trichoplusia ni (Hubner)]; assay: Cabbage looper insecticidal test; details: second-instar larvae, percent in solution; 3-5 days
# Outline: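 LC50 values, given as percent test compound in solution, were calculated from dosage-mortality curves. Squash cotyledons were immersed 2-3 s in acetone-water (50-50) dilutions starting at 0.1%, dried on a screen, then infested with five second-instar larvae. Mortality was read 3-5 days on.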
# [4] = test system: Maize weevil [Sitophilus Zeamais (Motschulsky)]; assay: Maize weevil insecticidal test; details: adult weevils, percent in solution; 48 hours
# Outline: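 LC50, in percent of compound in solution, was derived from dosage-mortality curves after 48 h at about 25 °C. Ten adult weevils per container fed on four corn seeds briefly immersed in acetone:water (50:50) solutions of up to 0.01% and dried.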
# [5] = test system: Housefly [Musca domestica]; assay: Housefly insecticidal test; details: μg per 25 female flies; mortality after 48 hours
# Outline: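 Acetone solutions (with 0.01% peanut oil) dried onto dish bottoms, then 25 female flies, 1-2 days old, caged over the residue with sugar water. Mortality scored at 48 hours; LC50 from dosage-mortality curves, in μg per 25 female flies, top level 100 μg.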
SMILES,"LC50, TBW, E (TBW-E) [1] [%]","LC50, LH [2] [%]","LC50, CL [3] [%]","LC50, MW [4] [%]","LC50, HF [5] [µg]"
CCc1ccc(N=C(OCc2ccc(F)c(Oc3ccccc3)c2)C(C)C)cc1 [Compound 360],> 0.1,< 0.05,0.006,> 0.01,< 100
CCc1ccc(N=C(OCc2ccc(F)c(Oc3ccc(F)cc3)c2)C(C)C)cc1 [Compound 361],0.04,< 0.05,0.001,> 0.01,< 100
CSc1cccc(N=C(OCc2ccc(F)c(Oc3ccccc3)c2)C(C)C)c1 [Compound 362],> 0.1,> 0.05,> 0.1,> 0.01,< 100
COc1ccc(N=C(OCc2ccc(F)c(Oc3ccc(F)cc3)c2)C(C)C)cc1OC [Compound 363],> 0.1,> 0.05,> 0.1,> 0.01,< 100
CC(C)C(=Nc1ccc(Br)c(C(F)(F)F)c1)OCc1ccc(F)c(Oc2ccc(F)cc2)c1 [Compound 364],0.025,< 0.05,0.00045,> 0.01,< 100
CC(C)C(=Nc1ccc(C(F)(F)F)cc1)OCc1cccc(Oc2ccc(Cl)cc2)c1 [Compound 365],0.038,< 0.05,0.00025,> 0.01,> 100
CC(C)C(=Nc1ccc2c(c1)OCO2)OCc1ccc(F)c(Oc2ccc(Cl)cc2)c1 [Compound 366],0.012,0.05,0.0007,> 0.01,< 100
CC(C)C(=Nc1ccc2c(c1)OCO2)OCc1cccc(Oc2ccc(C(C)(C)C)cc2)c1 [Compound 367],> 0.1,> 0.05,< 0.1,> 0.01,> 100
CC(C)C(=Nc1ccc(F)cc1)OCCc1cccc(Oc2ccccc2)c1 [Compound 456],> 0.05,> 0.05,0.017,> 0.01,> 100
CC(C)C(=Nc1ccc2c(c1)OCO2)OCc1cccc(Oc2ccc(Cl)cc2)n1 [Compound 466],> 0.1,> 0.05,0.0008,0.01,13
CC(C)C(=Nc1ccc(F)c(Cl)c1)OCc1ccc(OCc2ccccc2)cc1 [Compound 475],> 0.1,> 0.05,0.008,> 0.01,> 100
C=CCOc1cccc(COC(=Nc2ccc(F)c(Cl)c2)C(C)C)c1 [Compound 479],> 0.1,> 0.05,0.013,> 0.01,66
CC(C)C(=Nc1ccc(F)c(Cl)c1)OCc1cccc(OCc2ccc(F)cc2)c1 [Compound 490],> 0.1,> 0.05,0.0045,> 0.01,> 100
CC(C)C(=Nc1ccc(F)c(Cl)c1)OCc1cccc(Oc2ccc(Br)cc2)n1 [Compound 492],0.015,> 0.05,0.00028,> 0.01,15
CC(C)C(=Nc1ccc(F)c(Cl)c1)OCc1cccc(Nc2ccc(F)cc2)c1 [Compound 512],> 0.1,> 0.05,0.003,> 0.01,35
CC(C)C(=Nc1cccc(C(F)(F)F)c1)OCc1cccc(Nc2ccc(F)cc2)c1 [Compound 513],> 0.1,> 0.05,0.007,> 0.01,81
CC(C)C(=Nc1ccc(Cl)c(Cl)c1)OCc1cccc(Nc2ccc(F)cc2)c1 [Compound 514],> 0.1,> 0.05,0.008,> 0.01,> 100
CC(C)C(=Nc1ccc2c(c1)OCO2)OCc1cc(Oc2ccc(F)cc2)ccn1 [Compound 515],> 0.1,> 0.05,0.0015,> 0.01,28
CC(C)C(=Nc1ccc(F)c(Cl)c1)OCc1cc(Oc2ccc(Cl)cc2)ccn1 [Compound 516],> 0.1,> 0.05,0.008,> 0.01,> 100
CC(C)C(=Nc1cccc(C(F)(F)F)c1)OCc1ccnc(Oc2ccc(Cl)cc2)c1 [Compound 517],0.04,> 0.05,0.0008,> 0.01,80
CC(C)C(=Nc1cccc(C(F)(F)F)c1)OCc1cccc(Oc2ccc(Cl)cn2)c1 [Compound 518],> 0.1,> 0.05,0.00075,> 0.01,> 100
C#CC(OC(=Nc1cccc(C(F)(F)F)c1)C(C)C)c1cccc(Oc2ccccc2)c1 (stereo not drawn) [Compound 519],> 0.1,> 0.05,0.0037,> 0.01,60
CCC(=Nc1ccc(F)c(F)c1)OCc1coc(Cc2ccccc2)c1 [Compound 524],> 0.1,> 0.05,> 0.1,> 0.01,5.2
CC(C)(C)C(=Nc1ccc(F)c(F)c1)OCc1coc(Cc2ccccc2)c1 [Compound 525],> 0.1,> 0.05,< 0.1,> 0.01,> 100
CC(=Nc1ccc(F)c(F)c1)OCc1coc(Cc2ccccc2)c1 [Compound 526],> 0.1,> 0.05,> 0.1,> 0.01,8.3
CC(C)C(=Nc1ccc(F)c(Cl)c1)OCc1cccc(Oc2ccc(Cl)cn2)c1 [Compound 527],0.035,> 0.05,0.00065,> 0.01,47
CC(C)C(=Nc1ccc2c(c1)OCO2)OCc1cccc(Oc2ccc(Cl)cn2)c1 [Compound 532],> 0.1,> 0.05,< 0.1,> 0.01,> 100
